Results taken from patent publication US20190116835A1, “Sweetness and Taste Improvement of Steviol Glycoside or Mogroside Sweeteners with Flavonids” (The Coca-Cola Company, priority 2016, published 2019).

Columns and labels:
[1] = Taste evaluation by trained panelists: sweetness enhancement of Rebaudioside M, compared against sucrose beverages; type: in vivo, human; conditions: beverage containing 150 ppm Rebaudioside M in acidic water, no Test Mixture 1
Protocol: The ability of the following compounds to enhance the sweetness of Rebaudioside M was evaluated:
(§1) Sample were prepared with the following ingredients:
(§2) Ingredients were added to water or water with Test Mixture 1 while stirring until solids were visibly dissolved and the sample was poured into a glass bottle and stored at 4° C.
Trained panelists compared the taste and sweetness profiles of (i) the beverage containing 150 ppm Rebaudioside M (Table 3) and (ii) the beverage containing 40 ppm Test Mixture 1 and 150 ppm Rebaudioside M (Table 4) against the 6%, 8%, and 10% sucrose beverages (Table 5).
(§3) Bottles were removed from the refrigerator and about 25 ml of beverage was poured into 4 oz-plastic cups. Panelists were given mineral water to rinse their mouth before and between tastings. Unsalted crackers were also given to panelists to eat followed by rinsing their mouth with mineral water before tasting the next sample. Panelists were instructed to sip, evaluate the sweetness, and then spit the samples in cups provided for that purpose.

[2] = Taste evaluation by trained panelists: sweetness enhancement of Siamenoside I, compared against sucrose beverages; type: in vivo, human; conditions: beverage containing 150 ppm Siamenoside I in acidic water, no Test Mixture 1
Protocol: The ability of Text Mixture 1 to enhance the sweetness of Siamenoside I was evaluated.
as §1, §2
The trained panelists then compared the taste and sweetness profiles of (i) the beverage containing 150 ppm Siamenoside I (Table 3) and (ii) the beverage containing 40 ppm Test Mixture 1 and 150 ppm Siamenoside I (Table 4) against the 6%, 8%, and 10% sucrose beverages (Table 5).
as §3

In the case of C=C1C[C@@]23CC[C@H]4[C@@](C)(CCC[C@@]4(C)C(=O)O[C@@H]4O[C@H](CO)[C@@H](O)[C@H](O[C@@H]5O[C@H](CO)[C@@H](O)[C@H](O)[C@H]5O)[C@H]4O[C@@H]4O[C@H](CO)[C@@H](O)[C@H](O)[C@H]4O)[C@@H]2CC[C@]1(O[C@@H]1O[C@H](CO)[C@@H](O)[C@H](O[C@@H]2O[C@H](CO)[C@@H](O)[C@H](O)[C@H]2O)[C@H]1O[C@@H]1O[C@H](CO)[C@@H](O)[C@H](O)[C@H]1O)C3 [Rebaudioside M, rebaudioside M], the “sweetness, as sweet as sucrose beverage” value [1] is reported as 5-6 % sucrose.
For C[C@H](CC[C@@H](O[C@@H]1O[C@H](CO[C@@H]2O[C@H](CO)[C@@H](O)[C@H](O)[C@H]2O)[C@@H](O)[C@H](O)[C@H]1O[C@@H]1O[C@H](CO)[C@@H](O)[C@H](O)[C@H]1O)C(C)(C)O)[C@H]1CC[C@@]2(C)[C@@H]3CC=C4[C@@H](CC[C@H](O[C@@H]5O[C@H](CO)[C@@H](O)[C@H](O)[C@H]5O)C4(C)C)[C@]3(C)[C@H](O)C[C@]12C [Siamenoside I, siamenoside I], the “sweetness, equivalent to sucrose beverages” value [2] was 4%-6%.
